The cell lines below were run with CC1(COc2ccc3c(c2)ncn3-c2ccc3cccc(N4CCC(N)CC4)c3n2)COC1 [Crenolanib] + Nc1nc2[nH]cc(CCc3ccc(C(=O)N[C@@H](CCC(=O)O)C(=O)O)cc3)c2c(=O)[nH]1 [Pemetrexed] (partner 0.2 µM) (assay: relative viability (nuclei count vs DMSO), 5 days (fraction); higher = more cells survive). Conditions: first compound 1 µM.
Summary of the method: (§1)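 Cells from lung cancer lines were seeded into 1536-well plates and, one day later, dosed by pin tool. Treatments were either a single drug or a fixed dose of an anchor drug with five library-drug doses (not always all listed) in √10 steps. After 5 days, nuclei were stained in a one-step fixation (final 0.05% Triton X-100, 1% formaldehyde, 1 ug/ml Hoechst) and counted on 4× images, and relative viability is the treated-to-vehicle nuclei ratio, as the median of duplicate plates.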
NCI-H650 showed a relative viability of 0.918.
CAL-12T gave a relative viability of 1.31.
NCI-H1666 gave a relative viability of 0.831.
Work on H3255 yielded a relative viability of 0.589.
Work on NCI-H23 yielded a relative viability of 0.615.
In the case of NCI-H1915, the relative viability is reported as 0.531.
NCI-H1437 gave a relative viability of 0.336.
NCI-H322M was tested, and the relative viability was 0.605.
NCI-H2085 gave a relative viability of 0.949.
With HCC-366 the relative viability was 0.157.
Work on PC-3 [JPC-3] yielded a relative viability of 0.889.
EKVX was tested, and the relative viability was 0.387.
LCLC-103H was tested, and the relative viability was 0.48.
NCI-H1650 was tested, and the relative viability was 0.459.
With NCI-H1993 the relative viability was 0.544.
For SK-LU-1, the relative viability was 0.966.
NCI-H661 gave a relative viability of 0.979.
RERF-LC-KJ showed a relative viability of 0.447.

Each cell line was assayed with O=C1NC(=O)[C@@H](c2cn3c4c(cccc24)CCC3)[C@@H]1c1c[nH]c2ccccc12 [Tivantinib] + O=C(CCCCCCC(=O)Nc1ccccc1)NO [Vorinostat] (partner 1 µM) in the same assay as above. Conditions: first compound 0.01 µM.
Summary of the method: as §1
In the case of HCC-827, the relative viability is reported as 0.826.
NCI-H441 gave a relative viability of 0.844.
Cell Line LOU-NH91 has a relative viability of 0.838.
NCI-H2023 gave a relative viability of 0.698.
A-427 was tested, and the relative viability was 0.859.
NCI-H460 was tested, and the relative viability was 0.665.
Cell Line NCI-H1755 has a relative viability of 0.861.
Work on NCI-H520 yielded a relative viability of 0.672.
Cell Line NCI-H2405 has a relative viability of 1.17.
SW 1573 showed a relative viability of 1.04.
201T gave a relative viability of 0.894.
For NCI-H1975, the relative viability was 0.752.
For HOP-62, the relative viability was 0.606.
NCI-H2347 was tested, and the relative viability was 0.622.
Work on NCI-H1355 yielded a relative viability of 0.611.
NCI-H650 gave a relative viability of 0.45.
With CAL-12T the relative viability was 0.67.
NCI-H1666 gave a relative viability of 1.04.
NCI-H23 showed a relative viability of 0.679.
In the case of NCI-H1915, the relative viability is reported as 0.492.
In the case of NCI-H1437, the relative viability is reported as 0.877.
Work on NCI-H322M yielded a relative viability of 0.903.
Work on NCI-H2085 yielded a relative viability of 0.805.
For HCC-366, the relative viability was 0.389.
PC-3 [JPC-3] gave a relative viability of 0.791.
EKVX showed a relative viability of 0.732.
In the case of LCLC-103H, the relative viability is reported as 0.756.
NCI-H1650 showed a relative viability of 0.605.
NCI-H1993 gave a relative viability of 0.84.
In the case of SK-LU-1, the relative viability is reported as 0.742.
NCI-H661 showed a relative viability of 0.849.
With RERF-LC-KJ the relative viability was 0.717.

Same assay, conditions: first compound 0.03162 µM
HCC-827 was tested, and the relative viability was 0.809.
For NCI-H441, the relative viability was 0.762.
LOU-NH91 was tested, and the relative viability was 0.811.
NCI-H2023 gave a relative viability of 0.676.
A-427 showed a relative viability of 0.938.
NCI-H460 gave a relative viability of 0.67.
In the case of NCI-H1755, the relative viability is reported as 0.793.
In the case of NCI-H520, the relative viability is reported as 0.672.
NCI-H2405 gave a relative viability of 1.04.
Work on SW 1573 yielded a relative viability of 0.53.
With 201T the relative viability was 0.835.
NCI-H1975 gave a relative viability of 0.754.
With HOP-62 the relative viability was 0.301.
Work on NCI-H2347 yielded a relative viability of 0.436.
For NCI-H1355, the relative viability was 0.571.
Cell Line NCI-H650 has a relative viability of 0.356.
CAL-12T gave a relative viability of 0.874.
With NCI-H1666 the relative viability was 0.915.
H3255 was tested, and the relative viability was 0.843.
NCI-H23 was tested, and the relative viability was 0.527.
NCI-H1915 was tested, and the relative viability was 0.496.
NCI-H1437 was tested, and the relative viability was 0.82.
For NCI-H322M, the relative viability was 0.833.
NCI-H2085 gave a relative viability of 0.673.
HCC-366 gave a relative viability of 0.287.
PC-3 [JPC-3] was tested, and the relative viability was 0.979.
For EKVX, the relative viability was 0.725.
With LCLC-103H the relative viability was 0.642.
NCI-H1650 gave a relative viability of 0.448.
In the case of NCI-H1993, the relative viability is reported as 0.704.
With SK-LU-1 the relative viability was 0.764.
For NCI-H661, the relative viability was 0.792.
In the case of RERF-LC-KJ, the relative viability is reported as 0.628.

Same assay, conditions: first compound 0.1 µM
Cell Line HCC-827 has a relative viability of 0.862.
Cell Line NCI-H441 has a relative viability of 0.563.
LOU-NH91 showed a relative viability of 0.916.
Cell Line NCI-H2023 has a relative viability of 0.62.
A-427 showed a relative viability of 0.842.
With NCI-H460 the relative viability was 0.71.
Cell Line NCI-H1755 has a relative viability of 0.695.
In the case of NCI-H520, the relative viability is reported as 0.694.
With NCI-H2405 the relative viability was 1.
Work on SW 1573 yielded a relative viability of 0.75.
201T showed a relative viability of 0.898.
NCI-H1975 gave a relative viability of 0.685.
Work on HOP-62 yielded a relative viability of 0.554.
With NCI-H2347 the relative viability was 0.518.
Cell Line NCI-H1355 has a relative viability of 0.675.
NCI-H650 was tested, and the relative viability was 0.443.
Cell Line CAL-12T has a relative viability of 0.74.
In the case of NCI-H1666, the relative viability is reported as 1.
H3255 gave a relative viability of 0.753.
NCI-H23 was tested, and the relative viability was 0.624.
Work on NCI-H1915 yielded a relative viability of 0.49.
NCI-H1437 showed a relative viability of 0.829.
For NCI-H322M, the relative viability was 0.861.
With NCI-H2085 the relative viability was 0.752.
HCC-366 showed a relative viability of 0.373.
For PC-3 [JPC-3], the relative viability was 0.891.
For EKVX, the relative viability was 0.704.
LCLC-103H showed a relative viability of 0.749.
NCI-H1650 gave a relative viability of 0.651.
NCI-H1993 gave a relative viability of 0.728.
In the case of SK-LU-1, the relative viability is reported as 0.65.
Cell Line NCI-H661 has a relative viability of 0.752.
For RERF-LC-KJ, the relative viability was 0.717.

Same assay, conditions: first compound 0.3162 µM
Cell Line NCI-H441 has a relative viability of 0.708.
Work on LOU-NH91 yielded a relative viability of 0.749.
NCI-H2023 gave a relative viability of 0.516.
With A-427 the relative viability was 0.85.
NCI-H460 gave a relative viability of 0.404.
NCI-H1755 was tested, and the relative viability was 0.917.
With NCI-H520 the relative viability was 0.703.
For NCI-H2405, the relative viability was 1.26.
SW 1573 gave a relative viability of 0.67.
For 201T, the relative viability was 0.907.
Cell Line NCI-H1975 has a relative viability of 0.77.
With HOP-62 the relative viability was 0.803.
NCI-H2347 was tested, and the relative viability was 0.498.
With NCI-H1355 the relative viability was 0.61.
Work on NCI-H650 yielded a relative viability of 0.4.
Cell Line CAL-12T has a relative viability of 0.568.
Work on NCI-H1666 yielded a relative viability of 0.913.
For H3255, the relative viability was 0.295.
With NCI-H23 the relative viability was 0.671.
NCI-H1915 gave a relative viability of 0.568.
With NCI-H1437 the relative viability was 0.853.

Reference: the supplement of paper PMC10307832
